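Five concentrations, 48 hours, 96-well plates. The concentration for 50% growth inhibition is given as GI50.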 Calls of active or inactive are those of the source. Rule as the data show it: active = GI50 up to about 1.1 µM and inactive = higher.
How the values were obtained:
Experiment in all cases: DTP human tumour cell line panel, 48 h
SW-620 = tested on: SW-620
NCI-H460 = tested on: NCI-H460
HT-29 = tested on: HT-29
SNB-75 = tested on: SNB-75
OVCAR-5 = tested on: OVCAR-5
COLO 205 = tested on: COLO 205
TK-10 = tested on: TK-10
SN12C = tested on: SN12C
SF-268 = tested on: SF-268
NCI-H23 = tested on: NCI-H23
MOLT-4 = tested on: MOLT-4
K562 = tested on: K562
Malme-3M = tested on: Malme-3M
RPMI-8226 = tested on: RPMI-8226
LOX IMVI = tested on: LOX IMVI
RXF 393 = tested on: RXF 393

SMILES | GI50 (SW-620) | GI50 (NCI-H460) | GI50 (HT-29) | GI50 (SNB-75) | GI50 (OVCAR-5) | GI50 (COLO 205) | GI50 (TK-10) | GI50 (SN12C) | GI50 (SF-268) | GI50 (NCI-H23) | GI50 (MOLT-4) | GI50 (K562) | GI50 (Malme-3M) | GI50 (RPMI-8226) | GI50 (LOX IMVI) | GI50 (RXF 393)
O=C(O)Cc1ccc2c(c1O)C(=O)c1c(ccc(CC(=O)O)c1O)C2=O | > 100 µM (inactive) | > 100 µM (inactive) | > 100 µM (inactive) | > 100 µM (inactive) | > 100 µM (inactive) | > 100 µM (inactive) | > 100 µM (inactive) | > 100 µM (inactive) | > 100 µM (inactive) | > 100 µM (inactive) | > 100 µM (inactive) | > 100 µM (inactive) | > 100 µM (inactive) | > 100 µM (inactive) | > 100 µM (inactive) | –
O=Cc1[nH]c2ccccc2c1Br | 34.6 µM (inactive) | – | 25.1 µM (inactive) | 19.2 µM (inactive) | 98.4 µM (inactive) | 17.7 µM (inactive) | 36.6 µM (inactive) | 22.6 µM (inactive) | 22.9 µM (inactive) | 30.3 µM (inactive) | 22.5 µM (inactive) | 15 µM (inactive) | 18.5 µM (inactive) | – | 26.7 µM (inactive) | 25.4 µM (inactive)
Cc1c(OCCCOc2ccc3c(=O)cc(-c4ccccc4)oc3c2C)ccc2c(=O)cc(-c3ccccc3)oc12 | > 100 µM (inactive) | > 100 µM (inactive) | > 100 µM (inactive) | – | > 100 µM (inactive) | – | > 100 µM (inactive) | – | > 100 µM (inactive) | > 100 µM (inactive) | > 100 µM (inactive) | 59.2 µM (inactive) | > 100 µM (inactive) | > 100 µM (inactive) | > 100 µM (inactive) | 74 µM (inactive)
O=C(C#Cc1ccccc1)N1c2ccccc2CC1c1c[nH]c2ccccc12 (stereo unspecified) | 15.3 µM (inactive) | 18.6 µM (inactive) | 18 µM (inactive) | 11.7 µM (inactive) | 24.8 µM (inactive) | 14.5 µM (inactive) | 21.4 µM (inactive) | 13 µM (inactive) | – | 12.6 µM (inactive) | 9.02 µM (inactive) | 10.7 µM (inactive) | 14.9 µM (inactive) | 13 µM (inactive) | 6.73 µM (inactive) | 4.48 µM (inactive)
COc1nc2c(OC)cccc2c(OC)c1C=O | 96.4 µM (inactive) | > 100 µM (inactive) | > 100 µM (inactive) | 30.8 µM (inactive) | – | > 100 µM (inactive) | > 100 µM (inactive) | > 100 µM (inactive) | – | > 100 µM (inactive) | 61.5 µM (inactive) | 53.7 µM (inactive) | > 100 µM (inactive) | > 100 µM (inactive) | > 100 µM (inactive) | > 100 µM (inactive)
CC(C)(C)CC(C)(C)c1cc2c(O)c(c1)Cc1cc(C(C)(C)CC(C)(C)C)cc(c1O)Cc1cc(C(C)(C)CC(C)(C)C)cc(c1O)Cc1cc(C(C)(C)CC(C)(C)C)cc(c1O)Cc1cc(C(C)(C)CC(C)(C)C)cc(c1O)C2 | > 100 µM (inactive) | > 100 µM (inactive) | > 100 µM (inactive) | > 100 µM (inactive) | > 100 µM (inactive) | > 100 µM (inactive) | > 100 µM (inactive) | > 100 µM (inactive) | > 100 µM (inactive) | > 100 µM (inactive) | > 100 µM (inactive) | > 100 µM (inactive) | > 100 µM (inactive) | > 100 µM (inactive) | – | > 100 µM (inactive)
Cc1ccc(S(=O)(=O)O/N=C2\CCC\C2=C/c2ccccc2)cc1 | 29.6 µM (inactive) | 19.5 µM (inactive) | 25.3 µM (inactive) | 20.2 µM (inactive) | 23 µM (inactive) | 16.3 µM (inactive) | 16.6 µM (inactive) | 45 µM (inactive) | 8.87 µM (inactive) | 19.4 µM (inactive) | 13 µM (inactive) | 26.7 µM (inactive) | – | 16 µM (inactive) | 25.9 µM (inactive) | 20.3 µM (inactive)
COC(=O)C12C3C=CC(O3)C1C1C=CC2O1 (stereo unspecified) | > 100 µM (inactive) | > 100 µM (inactive) | > 100 µM (inactive) | – | > 100 µM (inactive) | > 100 µM (inactive) | > 100 µM (inactive) | > 100 µM (inactive) | > 100 µM (inactive) | > 100 µM (inactive) | > 100 µM (inactive) | > 100 µM (inactive) | > 100 µM (inactive) | > 100 µM (inactive) | – | > 100 µM (inactive)
COC1CC(O[C@H]2CC[C@@]3(C)C(=CCC4(O)C3CCC35C(=O)OC6(C)O[C@@]43CCC65)C2)OC(C)C1O (stereo partly specified) | – | > 100 µM (inactive) | > 100 µM (inactive) | > 100 µM (inactive) | > 100 µM (inactive) | > 100 µM (inactive) | > 100 µM (inactive) | > 100 µM (inactive) | > 100 µM (inactive) | > 100 µM (inactive) | > 100 µM (inactive) | > 100 µM (inactive) | > 100 µM (inactive) | > 100 µM (inactive) | – | > 100 µM (inactive)
CC1=CC2C(C=C1)S(=O)(=O)N1CC21c1ccccc1 (stereo unspecified) | > 100 µM (inactive) | > 100 µM (inactive) | > 100 µM (inactive) | > 100 µM (inactive) | > 100 µM (inactive) | > 100 µM (inactive) | > 100 µM (inactive) | > 100 µM (inactive) | > 100 µM (inactive) | > 100 µM (inactive) | – | 69.2 µM (inactive) | > 100 µM (inactive) | > 100 µM (inactive) | 33.5 µM (inactive) | –
CC(C)c1ccc(/C=C/c2cc(C(=O)NNC(=O)NC3CCCCC3)nc(S)n2)cc1 | > 100 µM (inactive) | > 100 µM (inactive) | > 100 µM (inactive) | > 100 µM (inactive) | > 100 µM (inactive) | > 100 µM (inactive) | > 100 µM (inactive) | > 100 µM (inactive) | > 100 µM (inactive) | > 100 µM (inactive) | – | – | > 100 µM (inactive) | > 100 µM (inactive) | > 100 µM (inactive) | > 100 µM (inactive)
COc1ccccc1NC(=O)C1=C(C)NC(C)=C(C(=O)Nc2ccccc2OC)C1c1cccc2c1OCO2 | > 100 µM (inactive) | > 100 µM (inactive) | > 100 µM (inactive) | 14.1 µM (inactive) | > 100 µM (inactive) | > 100 µM (inactive) | > 100 µM (inactive) | > 100 µM (inactive) | > 100 µM (inactive) | > 100 µM (inactive) | 20.7 µM (inactive) | 51.1 µM (inactive) | > 100 µM (inactive) | 33 µM (inactive) | > 100 µM (inactive) | –
CCN(CC)c1ccc(/N=N/c2ccc(-c3nc4cccnc4o3)cc2)cc1 | > 100 µM (inactive) | – | > 100 µM (inactive) | > 100 µM (inactive) | > 100 µM (inactive) | > 100 µM (inactive) | > 100 µM (inactive) | > 100 µM (inactive) | > 100 µM (inactive) | > 100 µM (inactive) | > 100 µM (inactive) | > 100 µM (inactive) | > 100 µM (inactive) | > 100 µM (inactive) | > 100 µM (inactive) | > 100 µM (inactive)
C/N=C(\S)N/N=C/C(C)=N/N/C(S)=N/C | > 100 µM (inactive) | > 100 µM (inactive) | – | – | 0.843 µM (active) | > 100 µM (inactive) | > 100 µM (inactive) | > 100 µM (inactive) | > 100 µM (inactive) | > 100 µM (inactive) | 0.323 µM (active) | – | > 100 µM (inactive) | 0.583 µM (active) | > 100 µM (inactive) | > 100 µM (inactive)
Nc1c(Br)c(=O)[nH]c(=O)n1COCCO | > 100 µM (inactive) | > 100 µM (inactive) | > 100 µM (inactive) | > 100 µM (inactive) | > 100 µM (inactive) | > 100 µM (inactive) | > 100 µM (inactive) | > 100 µM (inactive) | > 100 µM (inactive) | > 100 µM (inactive) | > 100 µM (inactive) | > 100 µM (inactive) | > 100 µM (inactive) | – | > 100 µM (inactive) | > 100 µM (inactive)
C[C@@H](C1CCC2C3C(=CC(=O)[C@@]21C)[C@H](C)[C@]1(CCC(=O)O1)C1OC31)[C@H]1C[C@]2(C)O[C@@](C)(O1)OC2(C)C (stereo partly specified) | > 100 µM (inactive) | > 100 µM (inactive) | > 100 µM (inactive) | – | – | > 100 µM (inactive) | > 100 µM (inactive) | > 100 µM (inactive) | > 100 µM (inactive) | > 100 µM (inactive) | > 100 µM (inactive) | > 100 µM (inactive) | – | > 100 µM (inactive) | > 100 µM (inactive) | > 100 µM (inactive)
O=c1[nH]c(=O)n(C2CC(O)C(CO)O2)cc1C#Cc1c(F)c(F)c(F)c(F)c1F (stereo unspecified) | > 100 µM (inactive) | > 100 µM (inactive) | > 100 µM (inactive) | > 100 µM (inactive) | > 100 µM (inactive) | > 100 µM (inactive) | – | > 100 µM (inactive) | > 100 µM (inactive) | > 100 µM (inactive) | > 100 µM (inactive) | > 100 µM (inactive) | > 100 µM (inactive) | > 100 µM (inactive) | > 100 µM (inactive) | –
O/N=C1\C(=C\c2ccc3c(c2)OCCO3)CCCC1C(NO)c1ccc2c(c1)OCCO2 (stereo unspecified) | 32.2 µM (inactive) | 20.5 µM (inactive) | 17.5 µM (inactive) | 28.7 µM (inactive) | 32.6 µM (inactive) | 32.4 µM (inactive) | 24.2 µM (inactive) | 14 µM (inactive) | 18.2 µM (inactive) | – | 10.1 µM (inactive) | – | 25.4 µM (inactive) | 16.3 µM (inactive) | 15.7 µM (inactive) | 25.8 µM (inactive)
